According to PMC12136037, “Type II kinase inhibitors that target Parkinson’s disease–associated LRRK2” (Science Advances, 2025):
Several values for one entry are separate records, joined by “and”; a condition that tells them apart may be missing. Equal entries are not always repeated.

Tests used:
[1] = system: LRRK2 S935 phosphorylation; test: Western blot of LRRK2 biomarker site pS935 in transfected 293T cells; type: cell-based, human; conditions: for pS935 LRRK2/LRRK2 normalized to DMSO, Mean / pS935 LRRK2/LRRK2 normalized to DMSO: 4 h; for pS935 LRRK2/LRRK2 normalized to DMSO, Mean: 3 replicates; for pS935 LRRK2/LRRK2 normalized to DMSO: individual Western blots; for effect on phosphorylation of LRRK2 S935: 293T cells, MLi-2 500 nM
Experimental: For all in cell kinase assays, after 48 hours, transfected cells were treated with either DMSO (control) or the indicated inhibitors for 4 hours at 37°C and 5% CO2. Following treatments, cells were washed three times with ice cold PBS. Cells were then lysed in ice cold radioimmunoprecipitation assay (RIPA) lysis buffer [50 mM tris (pH 8.0), 150 mM NaCl, 1% Triton X-100, 0.1% SDS, 0.5% sodium deoxycholate, and 1 mM DTT] in the presence of complete mini EASYpack protease inhibitor cocktail and the PhosSTOP EASYpack phosphatase inhibitor cocktail (Roche). Resuspended and lysed cells were clarified by centrifugation at 13,000g for 15 min at 4°C. NuPAGE LDS Sample Buffer (1×) and NuPAGE Sample Reducing Agent (1×; Invitrogen) were added to the clarified supernatants, and the samples were boiled at 95°C for 5 min and spun down at 13,000g for 10 min. For Western blotting, 15 μl of sample was loaded into a NuPAGE 4 to 12% gradient bis-tris gel (Invitrogen) and run at 120 V for 75 min before transfer to polyvinylidene difluoride transfer membrane (0.45-μm pore size, Millipore) for 240 min at 80 V at 4°C. The membrane was blocked in 5% milk in 1× Tris-buffered saline (TBS) [20 mM tris (pH 8.0) and 150 mM NaCl] for 1 hour shaking at room temperature. Primary antibodies [monoclonal rabbit anti-LRRK2 (Abcam, ab133474; RRID: AB_2713963), polyclonal rabbit anti-LRRK1 (Abcam, ab228666), monoclonal rabbit anti-LRRK2 phospho-S935 (Abcam, ab133450; RRID: AB_2732035), monoclonal rabbit anti-Rab8a phospho-T72 (Abcam, ab230260; RRID: AB_2814988), monoclonal rabbit anti-Rab7 phospho-S72 (Abcam, ab302494; RRID: AB_2933985), monoclonal rabbit anti–glyceraldehyde-3-phosphate dehydrogenase (GAPDH; Cell Signalling Technology, 2118; RRID: AB_561053), and monoclonal mouse anti-GFP (Santa Cruz Biotechnology, sc-9996; RRID: AB_627695)] were diluted in 5% milk in TBS and incubated with membrane for 16 hours at 4°C. Following incubation, membranes were washed three times with 1× TBS-T [20 mM tris (pH 8.0), 150 mM NaCl, and 0.1% Tween 20] before incubation with IRDye 680RD goat anti-rabbit IgG (LI-COR, 926-68071; RRID: AB_10956166) and IRDye 800CW goat anti-mouse IgG (LI-COR, 926-32210; RRID: AB_621842) secondary antibodies in 5% milk in 1× TBS for 1 hour at room temperature. Membranes were then washed three times in 1× TBS-T before imaging on Li-COR Odyssey CLx controlled by Imaging Studio software (www.licorbio.com/image-studio, RRID:SCR_015795). Image processing and quantification were performed in ImageJ version 2.14.0 (National Institutes of Health; https://imagej.net/, RRID:SCR_003070). The signal intensity of each band was assessed using the Analyze>Gels tool. The band intensity for phosphorylated LRRK2 was measured and compared to total LRRK2 levels (run under identical conditions on a separate gel). Band intensity for phosphorylated Rab7 or Rab8a was measured and compared against total GFP-Rab7 or GFP-Rab8a (using anti-GFP antibody) and LRRK1/LRRK2 levels as appropriate. Comparative statistical analysis of phosphorylation levels was analyzed using a one-way analysis of variance (ANOVA) and corrected using Tukey’s multiple comparisons test in GraphPad Prism 10 (www.graphpad.com/, RRID:SCR_002798). (For current step-by-step protocol for LRRK transfection and Western blotting, see dx.doi.org/10.17504/protocols.io.kxygx9bozg8j/v1.)

LRRK2 = molecular target: T1, LRRK2 (Homo sapiens, UniProt Q5S007); test: Western blot of Rab8a phosphorylation (pT72) in 293T cells transfected with wild-type LRRK2 and GFP-Rab8a; type: cell-based; conditions: for toxicity / effect on phosphorylation of Rab8a in cells: 293T cells; for toxicity: any of the concentrations used; for effect on phosphorylation of Rab8a in cells: increasing concentrations
T1 construct: wild-type full-length LRRK2 (pcDNA5-LRRK2, RRID: Addgene_229019)
Experimental: For all in cell kinase assays, after 48 hours, transfected cells were treated with either DMSO (control) or the indicated inhibitors for 4 hours at 37°C and 5% CO2. Following treatments, cells were washed three times with ice cold PBS. Cells were then lysed in ice cold radioimmunoprecipitation assay (RIPA) lysis buffer [50 mM tris (pH 8.0), 150 mM NaCl, 1% Triton X-100, 0.1% SDS, 0.5% sodium deoxycholate, and 1 mM DTT] in the presence of complete mini EASYpack protease inhibitor cocktail and the PhosSTOP EASYpack phosphatase inhibitor cocktail (Roche). Resuspended and lysed cells were clarified by centrifugation at 13,000g for 15 min at 4°C. […] The membrane was blocked in 5% milk in 1× Tris-buffered saline (TBS) [20 mM tris (pH 8.0) and 150 mM NaCl] for 1 hour shaking at room temperature. […] Membranes were then washed three times in 1× TBS-T before imaging on Li-COR Odyssey CLx controlled by Imaging Studio software (www.licorbio.com/image-studio, RRID:SCR_015795). […] The signal intensity of each band was assessed using the Analyze>Gels tool. The band intensity for phosphorylated LRRK2 was measured and compared to total LRRK2 levels (run under identical conditions on a separate gel). Band intensity for phosphorylated Rab7 or Rab8a was measured and compared against total GFP-Rab7 or GFP-Rab8a (using anti-GFP antibody) and LRRK1/LRRK2 levels as appropriate. Comparative statistical analysis of phosphorylation levels was analyzed using a one-way analysis of variance (ANOVA) and corrected using Tukey’s multiple comparisons test in GraphPad Prism 10 (www.graphpad.com/, RRID:SCR_002798).

[2] = GFP-11 tagged WT LRRK2, 5 μM, 4 replicates

T1 sequence (Q5S007 whole entry): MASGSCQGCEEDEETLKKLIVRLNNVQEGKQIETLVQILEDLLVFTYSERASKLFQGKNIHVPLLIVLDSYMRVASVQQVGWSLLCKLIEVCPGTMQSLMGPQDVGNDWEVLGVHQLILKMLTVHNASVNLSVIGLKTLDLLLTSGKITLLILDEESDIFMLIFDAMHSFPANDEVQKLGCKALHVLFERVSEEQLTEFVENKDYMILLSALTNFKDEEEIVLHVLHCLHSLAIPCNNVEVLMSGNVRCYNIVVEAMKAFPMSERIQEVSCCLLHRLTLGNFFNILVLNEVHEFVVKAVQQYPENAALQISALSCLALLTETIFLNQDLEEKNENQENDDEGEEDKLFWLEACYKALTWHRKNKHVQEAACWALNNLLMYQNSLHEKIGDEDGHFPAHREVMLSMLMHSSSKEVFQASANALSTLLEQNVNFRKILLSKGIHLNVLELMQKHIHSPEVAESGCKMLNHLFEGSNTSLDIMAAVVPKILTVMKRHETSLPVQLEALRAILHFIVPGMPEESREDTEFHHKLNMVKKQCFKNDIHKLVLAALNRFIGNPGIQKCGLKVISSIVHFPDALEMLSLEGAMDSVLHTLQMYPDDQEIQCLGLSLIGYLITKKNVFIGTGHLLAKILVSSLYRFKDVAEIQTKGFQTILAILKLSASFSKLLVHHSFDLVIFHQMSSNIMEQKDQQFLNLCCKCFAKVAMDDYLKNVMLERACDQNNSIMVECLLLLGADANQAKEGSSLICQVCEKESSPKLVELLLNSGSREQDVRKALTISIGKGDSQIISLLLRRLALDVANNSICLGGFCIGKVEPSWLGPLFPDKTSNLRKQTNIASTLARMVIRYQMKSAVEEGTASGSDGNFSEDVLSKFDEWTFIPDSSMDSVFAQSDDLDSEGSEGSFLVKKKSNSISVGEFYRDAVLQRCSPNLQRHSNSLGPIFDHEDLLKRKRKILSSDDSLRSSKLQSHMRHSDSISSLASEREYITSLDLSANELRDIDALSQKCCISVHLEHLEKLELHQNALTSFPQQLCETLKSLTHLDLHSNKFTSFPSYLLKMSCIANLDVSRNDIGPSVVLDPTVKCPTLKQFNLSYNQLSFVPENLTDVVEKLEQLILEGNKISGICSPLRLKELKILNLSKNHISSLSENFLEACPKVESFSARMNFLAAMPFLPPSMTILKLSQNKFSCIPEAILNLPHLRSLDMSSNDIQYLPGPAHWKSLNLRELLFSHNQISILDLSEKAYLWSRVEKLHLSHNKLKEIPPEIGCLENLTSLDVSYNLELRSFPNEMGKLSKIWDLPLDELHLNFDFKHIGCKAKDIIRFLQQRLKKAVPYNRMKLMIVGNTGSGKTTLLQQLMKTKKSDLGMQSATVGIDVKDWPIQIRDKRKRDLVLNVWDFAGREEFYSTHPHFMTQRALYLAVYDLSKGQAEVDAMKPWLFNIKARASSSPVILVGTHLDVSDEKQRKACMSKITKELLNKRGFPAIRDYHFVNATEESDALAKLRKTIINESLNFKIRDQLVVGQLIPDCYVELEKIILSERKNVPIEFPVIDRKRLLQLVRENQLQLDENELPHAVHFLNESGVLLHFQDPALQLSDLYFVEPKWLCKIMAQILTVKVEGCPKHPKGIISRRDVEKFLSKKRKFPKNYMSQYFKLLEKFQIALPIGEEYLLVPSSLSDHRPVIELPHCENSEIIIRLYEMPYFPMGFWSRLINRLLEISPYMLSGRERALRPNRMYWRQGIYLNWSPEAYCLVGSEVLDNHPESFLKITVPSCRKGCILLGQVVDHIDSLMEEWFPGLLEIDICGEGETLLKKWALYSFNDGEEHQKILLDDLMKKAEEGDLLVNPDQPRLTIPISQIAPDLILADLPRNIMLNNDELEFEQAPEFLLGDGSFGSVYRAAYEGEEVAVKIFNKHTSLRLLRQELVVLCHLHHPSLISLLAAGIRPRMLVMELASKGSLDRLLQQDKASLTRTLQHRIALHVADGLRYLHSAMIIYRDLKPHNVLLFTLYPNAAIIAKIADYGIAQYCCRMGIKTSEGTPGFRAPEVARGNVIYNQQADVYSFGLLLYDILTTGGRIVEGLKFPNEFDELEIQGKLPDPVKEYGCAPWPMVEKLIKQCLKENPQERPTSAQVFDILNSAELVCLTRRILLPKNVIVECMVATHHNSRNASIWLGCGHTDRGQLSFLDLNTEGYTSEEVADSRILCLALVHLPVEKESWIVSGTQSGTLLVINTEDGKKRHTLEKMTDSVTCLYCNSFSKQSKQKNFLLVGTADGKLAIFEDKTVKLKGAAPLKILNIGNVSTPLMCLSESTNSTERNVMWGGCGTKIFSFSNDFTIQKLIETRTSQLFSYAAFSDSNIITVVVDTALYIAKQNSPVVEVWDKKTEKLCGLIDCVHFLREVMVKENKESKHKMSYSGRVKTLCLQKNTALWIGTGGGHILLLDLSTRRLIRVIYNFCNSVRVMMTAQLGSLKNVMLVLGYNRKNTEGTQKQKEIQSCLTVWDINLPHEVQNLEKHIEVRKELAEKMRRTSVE

Compound	pS935 LRRK2/LRRK2 normalized to DMSO, Mean ([1]; 5 μM)	effect on phosphorylation of LRRK2 S935 [1]	pRab8/Rab8/LRRK2 normalized to DMSO, Mean (LRRK2; 5 μM, 4 h, 3 replicates)	pS935 LRRK2/LRRK2 normalized to DMSO, Mean ([1]; 250 nM)	pS935 LRRK2/LRRK2 normalized to DMSO, Mean ([1]; 500 nM)	pS935 LRRK2/LRRK2 normalized to DMSO, Mean ([1]; 1 μM)	pS935 LRRK2/LRRK2 normalized to DMSO, Mean ([1]; 10 μM)	pRab8/Rab8/LRRK2 normalized to DMSO, Mean (LRRK2; 250 nM, 4 h, 3 replicates)	pRab8/Rab8/LRRK2 normalized to DMSO, Mean (LRRK2; 500 nM, 4 h, 3 replicates)	pRab8/Rab8/LRRK2 normalized to DMSO, Mean (LRRK2; 1 μM, 4 h, 3 replicates)	pRab8/Rab8/LRRK2 normalized to DMSO, Mean (LRRK2; 10 μM, 4 h, 3 replicates)	toxicity (LRRK2)	effect on phosphorylation of Rab8a in cells (LRRK2)	pRab8/Rab8/LRRK2 normalized to DMSO, Mean (LRRK2; [2])	other results
Cc1ccc(C(=O)Nc2ccc(CN3CCN(C)CC3)c(C(F)(F)F)c2)cc1C#Cc1cnc2cccnn12 [Ponatinib, reference compound]	0.91	none of the tested type II inhibitors (broad-spectrum kinase inhibitor Ponatinib or our top compounds RN277 and RN341) reduced the phosphorylation level at this site	0.2682												pS935 LRRK2/LRRK2 normalized to DMSO ([1]; 5 μM): 0.7959 and 0.8749 and 1.059; pRab8/Rab8/LRRK2 normalized to DMSO (LRRK2; 5 μM, 4 h, individual Western blots): 0.2608 and 0.2643 and 0.2795
Cc1ccc(-n2nc(C(C)(C)C)cc2NC(=O)Nc2cccc(-c3c[nH]c4nc(Cl)nc(N5CCOCC5)c34)c2)cc1 [Compound 30]	0.9338	none of the tested type II inhibitors (broad-spectrum kinase inhibitor Ponatinib or our top compounds RN277 and RN341) reduced the phosphorylation level at this site	0.2926	0.9168	0.8971	0.8756	0.9235	1.123	0.8664	0.8611	0.2543	Toxicity did not appear to be an issue	reduced phosphorylation of Rab8a in a dose-dependent manner	0.2436	pS935 LRRK2/LRRK2 normalized to DMSO ([1]; 250 nM, listed as 277): 0.9442 and 0.8289 and 0.9773; pS935 LRRK2/LRRK2 normalized to DMSO ([1]; 500 nM, listed as 277): 0.9489 and 0.8102 and 0.9321; pS935 LRRK2/LRRK2 normalized to DMSO ([1]; 1 μM, listed as 277): 1.005 and 0.7529 and 0.869; pS935 LRRK2/LRRK2 normalized to DMSO ([1]; 5 μM, listed as 277): 0.9369 and 0.9197 and 0.9447; pS935 LRRK2/LRRK2 normalized to DMSO ([1]; 10 μM, listed as 277): 0.9197 and 0.9052 and 0.9455; pRab8/Rab8/LRRK2 normalized to DMSO (LRRK2; 250 nM, 4 h, individual Western blots, listed as 277): 1.0545 and 1.033 and 1.2826; pRab8/Rab8/LRRK2 normalized to DMSO (LRRK2; 500 nM, 4 h, individual Western blots, listed as 277): 0.8279 and 0.7001 and 1.071; pRab8/Rab8/LRRK2 normalized to DMSO (LRRK2; 1 μM, 4 h, individual Western blots, listed as 277): 0.8817 and 0.6143 and 1.087; pRab8/Rab8/LRRK2 normalized to DMSO (LRRK2; 5 μM, 4 h, individual Western blots, listed as 277): 0.3266 and 0.2385 and 0.3127; pRab8/Rab8/LRRK2 normalized to DMSO (LRRK2; 10 μM, 4 h, individual Western blots, listed as 277): 0.2723 and 0.2085 and 0.282; pRab8/Rab8/LRRK2 normalized to DMSO (LRRK2; GFP-11 tagged WT LRRK2, 5 μM, individual blots, normalized to WT DMSO, listed as RN277): 0.1001 and 0.2331 and 0.598 and 0.04303
CCSc1nc(NC)c2c(-c3cccc(NC(=O)Nc4cc(C(C)(C)C)nn4-c4ccc(C)cc4)c3)c[nH]c2n1 [Compound 32]	0.8974	none of the tested type II inhibitors (broad-spectrum kinase inhibitor Ponatinib or our top compounds RN277 and RN341) reduced the phosphorylation level at this site	0.5047	0.9603	0.9221	0.8783	0.9517	1.109	0.9957	0.8556	0.408	Toxicity did not appear to be an issue	reduced phosphorylation of Rab8a in a dose-dependent manner	0.2782	pS935 LRRK2/LRRK2 normalized to DMSO ([1]; 250 nM, listed as 341): 0.9872 and 0.9193 and 0.9743; pS935 LRRK2/LRRK2 normalized to DMSO ([1]; 500 nM, listed as 341): 0.9409 and 0.8795 and 0.9459; pS935 LRRK2/LRRK2 normalized to DMSO ([1]; 1 μM, listed as 341): 0.9145 and 0.9018 and 0.8186; pS935 LRRK2/LRRK2 normalized to DMSO ([1]; 5 μM, listed as 341): 0.9195 and 0.9472 and 0.8255; pS935 LRRK2/LRRK2 normalized to DMSO ([1]; 10 μM, listed as 341): 0.9588 and 0.9056 and 0.9906; pRab8/Rab8/LRRK2 normalized to DMSO (LRRK2; 250 nM, 4 h, individual Western blots, listed as 341): 1.128 and 0.9817 and 1.217; pRab8/Rab8/LRRK2 normalized to DMSO (LRRK2; 500 nM, 4 h, individual Western blots, listed as 341): 1.05 and 0.7587 and 1.178; pRab8/Rab8/LRRK2 normalized to DMSO (LRRK2; 1 μM, 4 h, individual Western blots, listed as 341): 0.8182 and 0.7772 and 0.9713; pRab8/Rab8/LRRK2 normalized to DMSO (LRRK2; 5 μM, 4 h, individual Western blots, listed as 341): 0.5692 and 0.3629 and 0.5821; pRab8/Rab8/LRRK2 normalized to DMSO (LRRK2; 10 μM, 4 h, individual Western blots, listed as 341): 0.4385 and 0.2564 and 0.5293; pRab8/Rab8/LRRK2 normalized to DMSO (LRRK2; GFP-11 tagged WT LRRK2, 5 μM, individual blots, normalized to WT DMSO, listed as RN341): 0.1752 and 0.6963 and 0.1155 and 0.1257
